From patent US7521540B2, “CYR61 compositions and methods” (Munin Corporation, priority 1996, dated 2009)

What was measured:
[1] = tested on: Human Microvascular Endothelial Cells; experiment: In vitro migration assay for angiogenesis inhibitors; assay type: cell-based; conditions: bFGF 10 ng/ml; Cyr61; IGF-II
Method: As in the preceding Example, human microvascular endothelial cells (Clonetics) were used. In one series of assays, several carbohydrates and carbohydrate derivatives were analyzed. These compounds included 10 mM mannose, 10 mM mannose-6-phosphate, and 10 mM galactose. […] Cyr61 plus galactose induced the migration of approximately 74 cells per set of three high-powered fields. […] The angiogenic activity of basic FGF (10 ng/ml) was also tested, as described above, with and without mannose-6-phosphate. In the presence of 10 mM mannose-6-phosphate, bFGF induced 51 cells per set of three high-powered fields to migrate; in its absence, bFGF induced the migration of approximately 52 cells. […] The effect of mannose-6-phosphate on IGF II activity was anticipated because mannose-6-phosphate is known to compete with IGF II for their common receptor (the IGF II receptor). […] Moreover, because there is an essentially perfect correlation between the in vitro migration assay and the in vivo angiogenesis assay, described below, mannose-6-phosphate has been identified as an inhibitor of angiogenesis based on the results of the assay disclosed herein. Accordingly, the invention contemplates a method of inhibiting angiogenesis comprising the step of administering an inhibitor the angiogenic activity of Cyr61 such as mannose-6-phosphate. Assays such as that described above may also be used to screen for other inhibitors of angiogenesis which may be useful in the treatment of diseases associated with angiogenesis such as cancer, and diseases of the eye which are accompanied by neovascularization.

NIH 3T3 fibroblasts = experiment: Thymidine incorporation (mitogen potentiation), NIH 3T3; assay type: cell-based, mouse; conditions: bFGF 15 ng/ml or PDGF-BB 30 ng/ml
Method: More specifically, NIH 3T3 fibroblast cells were plated on 24-well plates at 3×10^4 cells/well and grown in DMEM with 10% fetal bovine serum (Intergen Co., Purchase, N.Y.) for 3-4 days and incubated with medium containing 0.2% FBS for the following 48 hours. The following compounds, at the parenthetically noted final concentrations, were then added to the plated cells in fresh DMEM containing 0.2% fbs and [^3H]-thymidine (1 μCi/ml final concentration; ICN Biomedicals, Inc., Costa Mesa, Calif.): bFGF (15 ng/ml), PDGF-BB (30 ng/ml), and murine Cyr61 (0.5-5 μg/ml). These compounds were added to individual plates according to the following pattern: 1) no supplementation; 2) murine Cyr61; 3) bFGF; 4) murine Cyr61 and bFGF; 5) PDGF-BB; and 6) murine Cyr61 and PDGF. After 18-20 hours of incubation, cells were washed with PBS and fixed with 10% trichloroacetic acid. DNA was dissolved in 0.1 N NaOH and thymidine incorporation was determined. […] Without any supplements, 3T3 cells incorporated approximately 1.8×10^4 cpm of [^3H]-thymidine, in the presence or absence of Cyr61. […]
DNA synthesis for HUVE cells and NIH 3T3 fibroblasts was measured by thymidine incorporation as described previously (Kireeva et al., [1996]) with minor modifications. […] Thymidine incorporation into the trichloroacetic acid-insoluble fraction was determined after 24 hour incubation. […]

HUVE cells = experiment: Thymidine incorporation (mitogen potentiation), HUVE cells; assay type: cell-based, human
Method: Human umbilical vein endothelial cells were plated essentially as described above for 3T3 cells and exposed to a constant amount of murine Cyr61; controls received no Cyr61. Different plates were then exposed to different levels of bFGF, comprising a series of bFGF concentrations ranging from 0-10 ng/ml. […] At 1 ng/ml bFGF, however, HUVE cells increased their thymidine incorporation in the presence of bFGF to 6×10^2 cpm; in the presence of 1 ng/ml bFGF and murine Cyr61, HUVE cells incorporated 1.3×10^3 cpm. At 10 ng/ml bFGF, cells exposed to bFGF incorporated about 1.8×10^3 cpm thymidine; cells receiving 10 ng/ml bFGF and Cyr61 incorporated approximately 6.1×10^3 cpm.
The capacity of murine Cyr61 to potentiate the mitogenic activity of bFGF was verified by a thymidine incorporation assay involving HUVE cells and various combinations of bFGF, Cyr61, and anti-Cyr61 antibodies. Cells were plated and grown as described above. The following combinations of supplements (final plate concentrations noted parenthetically) were then pre-incubated for 1 hour before addition to individual plates: 1) pre-immune antiserum (3%); 2) bFGF (15 ng/ml) and pre-immune antiserum (3%); 3) pre-immune antiserum (3%) and Cyr61 (4 μg/ml); 4) pre-immune antiserum (3%), Cyr61 (4 μg/ml), and bFGF (15 ng/ml); 5) anti-Cyr61 antiserum (3%); 6) anti-Cyr61 antiserum and bFGF (15 ng/ml); 7) anti-Cyr61 antiserum (3%) and Cyr61 (4 μg/ml); and 8) anti-Cyr61 antiserum (3%), Cyr61 (4 μg/ml), and bFGF (15 ng/ml).
DNA synthesis for HUVE cells and NIH 3T3 fibroblasts was measured by thymidine incorporation as described previously (Kireeva et al., [1996]) with minor modifications. HUVE cells were grown in 24-well plates to a subconfluent state, serum-starved for 24 hours and treated with F12K medium containing 10% fetal bovine serum (FBS), 1 μCi/ml [^3H]-thymidine and 10 ng/ml basic Fibroblast Growth Factor (bFGF) (Gibco-BRL, Inc.) with various concentrations of Cyr61 and Fisp12 as indicated. […] Thymidine incorporation into the trichloroacetic acid-insoluble fraction was determined after 24 hour incubation. […]

bFGF: Growth factor used as positive control [reference compound]
migrating cells, chemoattractant without mannose-6-phosphate [1]: approximately 52 cells
[3H]-thymidine incorporation, growth factor alone (NIH 3T3 fibroblasts): about 1.2×10^5 cpm
thymidine incorporation, baseline (HUVE cells; 0-0.1 ng/ml bFGF, presence or absence of Cyr61, 72 hours): approximately 4×10^2 cpm
thymidine incorporation, bFGF alone (HUVE cells; 1 ng/ml bFGF): 6×10^2 cpm
thymidine incorporation, bFGF alone (HUVE cells; 10 ng/ml bFGF): about 1.8×10^3 cpm
